According to patent US8017786B2, “Substituted β-phenyl-α-hydroxy-propanoic acid, synthesis method and use thereof” (Northwest University, priority 2006, dated 2011):

What was measured:
[1] = test system: rats with cardiac ischemia reperfusion (I/R) injury; experiment: Myocardial infarction areas caused by cardiac muscle I/R; format: in vivo, rat; conditions: for aar/lv / nec/aar / nec/lv: 5 days, ischemia 30 min, reperfusion 30 min
Procedure: (§1) 52 SD rats having a body weight of 220±20 g were randomly divided into model control group, salviannic acid injection group (in 1 mL/kg), and group of bornyl β-(3,4-dihydroxylphenyl)-α-hydroxylpropionate ester at a small, middle and large dose (ip 5, 15, 35 mg/kg). The rats of the normal group and the model control group were ip administered with equal-volume of physiologic saline. The rats of all groups were administered for consecutive 5 days. When the rats were administered for the last time, they were simultaneously anesthetized with 1.5% pentobarbital sodium (ip 45 mg/kg), then a catheter was inserted into the right carotid artery, and connected via a transducer to an eight-channeled physiological recorder. Tracheal cannula was performed, and the ventilation rate was maintained at 60 times/min. The chest was opened, a 6/0 suture was used to form a loop at a site 1˜2 mm from the root of the anterior descending coronary artery, and a plastic pipe was introduced through the loop, then the loop was tightened up. The change of electrocardiogram was observed. An increase or decrease of ST indicated the success of ligation. The color of the myocardial tissue below the ligation suture became darker. 30 minutes later, the plastic pipe was pulled out to allow coronary artery blood flowing again and cause hyperemia of local tissue during reperfusion. For the groups subjected to ischemia for 30 min and reperfusion for 30 min, the myocardial infarction areas were recorded before the test, after ischemia for 1 min and 30 min, and after reperfusion for 30 min; for the groups subjected to ischemia for 30 min and reperfusion for 2 h, cardiac tissue samples were taken and fixed using 10% formalin, embedded with paraffin, serially sliced into sections with a thickness of 4 μm, and separately subjected to immunohistochemistry tests; the rats of the sham operation group were subjected only to the introduction of suture but their coronary arteries were not ligated.
After the rats were subjected to ischemia and reperfusion for 30 minutes, their anterior descending coronaries were ligated again, then they were sacrificed, their hearts were removed promptly, and 0.5 mL of 1% evans blue was injected into heart chambers via aorta to distinguish the ischemic regions and the non-ischemic regions. After the heart atrium and right ventricle were cut-off, the heart was refrigerated at −20° C. for 30 min, then placed in a tailor-made slice groove, and cut along the long axis to form 2 mm slices. The slices were immersed in 1% TTC phosphoric acid buffer solution (pH7.4), and incubated at 37° C. for 30 min to distinguish risky regions and necrotic regions. Then the slices were fixed with 10% formaldehyde for 24 h to enhance staining color for contrast photography. After the above treatment, the myocardial tissue was divided into: normal myocardia in blue, ischemic myocardia in light red, and necrotic myocardion in gray. A computer image analysis software was used to calculate the percentage of the area of the infarct myocardial region (nec) based on the area of the risky myocardial region (aar, i.e., ischemic myocardia, including ischemic infarct region and ischemic non-infarct region) (nec/aar), and the percentage of the area of the infarct myocardial region based on the whole area of the myocardia (nec/lv) to indicate the degree of infarct, as well as the percentage of the area of the risky myocardia based on the area of the left ventricle (aar/lv).

caspase-3 = experiment: Immunohistochemistry protein expression in I/R myocardial tissue: caspase-3; format: in vivo, rat; conditions: for Caspase-3 protein expression, OD value: 5 days, ischemia 30 min, reperfusion 2 h
Procedure: as §1
Standard immunohistochemistry ABC and SP methods were employed for staining. Bax: anti-rabbit polyclonal antibody (Santa CruzBio. Inc.) at a dilution of 1:200; […]: anti-rabbit polyclonal antibody (TBD Tianjin Biotechnological Center). At a dilution of […]; caspase-3: anti-rabbit polyclonal antibody (Normarkers Fromont, Calif.), at a dilution of 1:200; MMP-2: anti-murine monoclonal antibody (NormarkersFromont, Calif.) at a dilution of 1:200; PPARγ: anti-caprine polyclonal antibody (Santa Cruz Bio. Inc.), at a dilution of 1:500. The specific procedures were performed in accordance with the instructions of the ABC and SP kits, DAB was used for color development, and neutral resin was used for mounting. PBS was used instead of the first antibody as a negative control. Cells with positive expression of the test polypeptides were of brown-yellow color, with MMP-2 protein being present in acytoplasm, Bcl-2 expressed in nuclear membrane and cytoplasm, Bax mainly in cytoplasm and partially in nucleus, and caspase-3 mainly in nucleus and partially in cytoplasm. CMIAS image analysis system was used for random selection of fields of slices and automatic selection of sites for analysis, and statistic analysis was performed by using mean optical density values or integral optical density values of the obtained myocardial tissue slices.

Question: CC1(C)C2CCC1(C)C(OC(=O)C(O)Cc1ccc(O)c(O)c1)C2 (stereo not drawn) [bornyl salvianate ester, bornyl β-(3,4-dihydroxylphenyl)-α-hydroxylpropionate ester] was tested. Which aar/lv ([1]; 5 mg/kg ip) did it give?
Answer: Its aar/lv is 64.09 ± 18.10%.

Question: What about the nec/aar ([1]; 5 mg/kg ip) of the same compound?
Answer: The nec/aar was 61.72 ± 14.65%.

Question: What about the nec/lv ([1]; 5 mg/kg ip) of the same compound?
Answer: The nec/lv was 48.45 ± 17.11%.

Question: What about the aar/lv ([1]; 15 mg/kg ip) of the same compound?
Answer: The aar/lv was 63.02 ± 15.98%.

Question: And the nec/aar ([1]; 15 mg/kg ip)?
Answer: Its nec/aar is 62.63 ± 13.82%.

Question: What about the nec/lv ([1]; 15 mg/kg ip) of the same compound?
Answer: The nec/lv was 48.23 ± 15.34%.

Question: And the aar/lv ([1]; 35 mg/kg ip)?
Answer: Its aar/lv is 51.97 ± 13.04 %.

Question: What about the nec/aar ([1]; 35 mg/kg ip) of the same compound?
Answer: Its nec/aar is 50.01 ± 9.03 %.

Question: And the nec/lv ([1]; 35 mg/kg ip)?
Answer: Its nec/lv is 40.21 ± 12.65 %.

Question: What about the “decrease of aar/lv in comparison with the model control group” value ([1]; large dose group (35 mg/kg ip)) of the same compound?
Answer: The value was 22.5%.

Question: What about the “decrease of nec/aar in comparison with the model control group” value ([1]; large dose group (35 mg/kg ip)) of the same compound?
Answer: The value was 22%.

Question: And the “decrease of nec/lv in comparison with the model control group” value ([1]; large dose group (35 mg/kg ip))?
Answer: Its value is 20.4%.

Question: And the “Caspase-3 protein expression, OD value” (caspase-3; 5 mg/kg ip)?
Answer: Its value is 0.35 ± 0.14.

Question: What about the “Caspase-3 protein expression, OD value” (caspase-3; 15 mg/kg ip) of the same compound?
Answer: Its value is 0.32 ± 0.08.

Question: And the “Caspase-3 protein expression, OD value” (caspase-3; 35 mg/kg ip)?
Answer: Its value is 0.20 ± 0.07.

Question: What about the “expression of caspase-3 protein (in words)” value (caspase-3; myocardial cells I/R) of the same compound?
Answer: The value was “reduce the expression of Bax and caspase-3 proteins”.
